Here are results for one compound from US20240277662A1, “Administration of a Compound to Individuals with Hepatic Impairment” (Arena Pharmaceuticals, Inc., priority 2021, published 2024).

Like-named read-outs stand apart in the source and are kept apart here.

One data set deals with ulcerative colitis. To be noted: UC patients, cited from earlier work.
Data set [1] is described as follows: Safety and tolerability of a single oral dose of etrasimod in the hepatic impairment study. To be noted: single oral dose 2 mg; normal hepatic function or mild, moderate, severe hepatic impairment. Type of data set: in vivo, human. The text has this:
(§1) A study evaluated the effect of hepatic impairment on the PK, safety, and tolerability of etrasimod.
An open-label, parallel-group study included 36 patients (aged 18-80 years; body mass index ≥18) with hepatic impairment, based on Child-Pugh score at screening (mild=5-6 [n=8], moderate=7-9 [n=8], severe=10-14 [n=6]), and demographically matched control patients with normal hepatic function (n=14 total). The first patient with severe hepatic impairment was enrolled after ≥2 patients with mild hepatic impairment and ≥2 patients with moderate hepatic impairment had been enrolled and followed for ≥48 hours after dosing to ensure no significant safety signals were observed. […] Safety was assessed by adverse event monitoring, vital signs, physical and neurological examination, 12-lead electrocardiogram (ECG), and clinical laboratory evaluations. Plasma concentrations of etrasimod were determined via liquid chromatography-tandem mass spectrometry (LC-MS/MS) from matrix-matched calibration curves between 0.25 to 100.0 ng/ml and 0.1 to 120.4 ng/mL for total etrasimod (bound and unbound) and unbound etrasimod, respectively. Analyte LC-MS/MS quantitation reagents included an ACE C18 column, a 20-mM ammonium acetate/acetonitrile mobile phase, a Shimadzu LC pump and autosampler, and a Sciex API6500+MS with an electrospray probe in negative multiple reaction monitoring. […]

For data set [2] the following is noted: approximately 281 adult subjects treated at various doses; cited from earlier work.
Data set [3] can be described thus: Open-label, parallel-group single-dose PK study of etrasimod in patients with hepatic impairment and matched controls. To be noted: single oral dose 2 mg; for half-life: po, 2 mg, read-out: t1/2, mean (converted). In kind it is in vivo, human.
Source text: as §1
An open-label, parallel-group study included 36 patients (aged 18-80 years; body mass index ≥18) with hepatic impairment, based on Child-Pugh score at screening (mild=5-6 [n=8], moderate=7-9 [n=8], severe=10-14 [n=6]), and demographically matched control patients with normal hepatic function (n=14 total). The first patient with severe hepatic impairment was enrolled after ≥2 patients with mild hepatic impairment and ≥2 patients with moderate hepatic impairment had been enrolled and followed for ≥48 hours after dosing to ensure no significant safety signals were observed. On Day 1, patients received a single oral dose of etrasimod 2 mg after ≥10-hour fast. PK and safety data were collected over 21 days. Safety was assessed by adverse event monitoring, vital signs, physical and neurological examination, 12-lead electrocardiogram (ECG), and clinical laboratory evaluations. Plasma concentrations of etrasimod were determined via liquid chromatography-tandem mass spectrometry (LC-MS/MS) from matrix-matched calibration curves between 0.25 to 100.0 ng/ml and 0.1 to 120.4 ng/mL for total etrasimod (bound and unbound) and unbound etrasimod, respectively. Analyte LC-MS/MS quantitation reagents included an ACE C18 column, a 20-mM ammonium acetate/acetonitrile mobile phase, a Shimadzu LC pump and autosampler, and a Sciex API6500+MS with an electrospray probe in negative multiple reaction monitoring. Plasma protein-free supernatant was collected via ultracentrifugation at 223,000 g for 4 hours. Unbound etrasimod concentrations were only measured four hours post dose and results assumed to apply to other PK collection times. For protein precipitation, acetonitrile was applied to a 1:1 mixed matrix of plasma: supernatant. The positive control was warfarin. Plasma concentrations and PK parameters were summarized by hepatic function using descriptive statistics. Unbound etrasimod PK parameters were based on total etrasimod PK parameters adjusted by percent unbound. Mean plasma concentration-time profiles were presented graphically. Phoenix WinNonlin (CertaraUSA, Inc.) was used for PK analysis.

As to `O=C(O)C[C@H]1CCc2c1[nH]c1ccc(OCc3ccc(C4CCCC4)c(C(F)(F)F)c3)cc21` [Compound 1, (R)-2-(7-(4-cyclopentyl-3-(trifluoromethyl)benzyloxy)-1,2,3,4-tetrahydrocyclopenta[b]indol-3-yl)acetic acid], the “endoscopic and symptomatic improvements versus placebo” value in the data set on ulcerative colitis (2 mg QD for 12 weeks) is “clinically meaningful and statistically significant endoscopic and symptomatic improvements”. Moreover, the “beneficial effects in open-label extension study” value with ulcerative colitis (up to 46 weeks) is reported as “Sustained beneficial effects”. Also, in data set [1], the safety findings entry is “no clinically significant safety findings”. Moreover, the tolerability entry in data set [1] was “well tolerated”. In data set [2], the safety and tolerability entry is “safe and well-tolerated”. Further, the half-life in data set [3] (human, plasma, demographically matched normal control groups) is 43.9 to 59.5 h; in data set [3] (human, plasma, mild hepatic impairment group), 55.7 h; in data set [3] (human, plasma, moderate hepatic impairment group), 69.7 h; in data set [3] (human, plasma, severe hepatic impairment group), 76.5 h. Further, in data set [3] (human, fasted, across all groups, plasma, read-out: median tmax), the Tmax lay in the range of 4 to 8 h. The “unbound etrasimod AUC vs demographically matched normal control groups” value in data set [3] (all hepatic impairment groups) is reported as “typically comparable”. Further, the “mean plasma concentration-time profiles” value in data set [3] (moderate and severe hepatic impairment groups) is given as “slightly higher”; in data set [3] (normal hepatic function vs mild hepatic impairment groups), “overlapped”. In data set [3] (patients with mild, moderate or severe hepatic impairment), the “changes in etrasimod exposure” value was “relatively modest changes”. Further, the “unbound etrasimod Cmax, lower vs demographically matched normal control groups” value in data set [3] (progressively lower in mild, moderate and severe hepatic impairment groups) is reported as “up to 42.0%”. Moreover, the “peak exposure (Cmax) vs demographically matched normal control groups” value in data set [3] (total etrasimod, all hepatic impairment groups) is on record as “comparable”.

One may read the Tmax as the time from dosing to the highest level.
